Measured values from ChEMBL document CHEMBL1147511 (Bioorg Med Chem Lett, 2004).

Tests used:
Type in all cases: protein-complex assay
[1] = target: Neuronal acetylcholine receptor; alpha4/beta2 (Rattus norvegicus, UniProt P09483+P12390); experiment: Binding affinity towards Nicotinic acetylcholine receptor alpha4-beta2 using [3H]epibatidine
[2] = target: Neuronal acetylcholine receptor; alpha4/beta4 (Rattus norvegicus, UniProt P09483+P12392); experiment: Binding affinity towards Nicotinic acetylcholine receptor alpha4-beta4 using [3H]epibatidine
[3] = target: T1, Neuronal acetylcholine receptor; alpha3/beta4 (Rattus norvegicus, UniProt P04757+P12392); experiment: Binding affinity towards Nicotinic acetylcholine receptor alpha3-beta4
[4] = target: Neuronal acetylcholine receptor; alpha3/beta2 (Rattus norvegicus, UniProt P04757+P12390); experiment: Binding affinity towards Nicotinic acetylcholine receptor alpha3-beta2 using [3H]epibatidine
[5] = target: Neuronal acetylcholine receptor; alpha2/beta2 (Rattus norvegicus, UniProt P12389+P12390); experiment: Binding affinity towards nicotinic acetylcholine receptor alpha2-beta2 using [3H]epibatidine
[6] = target: Neuronal acetylcholine receptor; alpha2/beta4 (Rattus norvegicus, UniProt P12389+P12392); experiment: Binding affinity towards Nicotinic acetylcholine receptor alpha2-beta4 using [3H]epibatidine
[7] = target: T1, Neuronal acetylcholine receptor; alpha3/beta4; experiment: Binding affinity towards Nicotinic acetylcholine receptor alpha3-beta4 using [3H]epibatidine

Neuronal acetylcholine receptor; alpha2/beta4, sequence (P12389 whole entry): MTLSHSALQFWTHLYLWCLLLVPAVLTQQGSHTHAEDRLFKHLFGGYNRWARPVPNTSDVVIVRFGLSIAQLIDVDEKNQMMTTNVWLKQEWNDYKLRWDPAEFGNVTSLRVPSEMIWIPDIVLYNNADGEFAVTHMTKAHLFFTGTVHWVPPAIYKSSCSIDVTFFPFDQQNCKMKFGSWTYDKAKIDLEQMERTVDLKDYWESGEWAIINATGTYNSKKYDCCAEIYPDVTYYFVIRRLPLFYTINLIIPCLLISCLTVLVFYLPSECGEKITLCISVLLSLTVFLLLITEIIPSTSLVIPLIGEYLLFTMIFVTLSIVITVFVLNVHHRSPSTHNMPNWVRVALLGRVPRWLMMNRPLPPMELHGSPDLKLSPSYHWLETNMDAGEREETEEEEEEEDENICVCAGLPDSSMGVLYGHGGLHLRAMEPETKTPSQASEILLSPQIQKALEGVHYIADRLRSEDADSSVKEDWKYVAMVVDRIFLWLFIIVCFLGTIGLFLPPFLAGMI
Neuronal acetylcholine receptor; alpha2/beta4, sequence (P12392 whole entry): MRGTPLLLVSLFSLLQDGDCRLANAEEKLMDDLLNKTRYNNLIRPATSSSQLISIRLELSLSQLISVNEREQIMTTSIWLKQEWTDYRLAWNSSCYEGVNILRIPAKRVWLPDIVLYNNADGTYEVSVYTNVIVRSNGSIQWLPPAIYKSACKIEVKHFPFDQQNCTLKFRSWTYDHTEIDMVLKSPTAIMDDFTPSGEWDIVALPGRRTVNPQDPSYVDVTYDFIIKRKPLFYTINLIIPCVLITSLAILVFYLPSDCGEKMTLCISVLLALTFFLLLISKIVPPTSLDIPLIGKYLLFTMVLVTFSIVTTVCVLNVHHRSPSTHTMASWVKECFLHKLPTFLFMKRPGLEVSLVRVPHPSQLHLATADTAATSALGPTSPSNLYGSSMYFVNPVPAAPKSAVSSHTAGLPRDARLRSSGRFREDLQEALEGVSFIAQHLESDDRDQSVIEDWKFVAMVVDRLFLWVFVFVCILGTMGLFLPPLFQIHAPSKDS
Neuronal acetylcholine receptor; alpha2/beta2, sequence (P12389 whole entry): as the sequence (P12389 whole entry) above
Neuronal acetylcholine receptor; alpha2/beta2, sequence (P12390 whole entry): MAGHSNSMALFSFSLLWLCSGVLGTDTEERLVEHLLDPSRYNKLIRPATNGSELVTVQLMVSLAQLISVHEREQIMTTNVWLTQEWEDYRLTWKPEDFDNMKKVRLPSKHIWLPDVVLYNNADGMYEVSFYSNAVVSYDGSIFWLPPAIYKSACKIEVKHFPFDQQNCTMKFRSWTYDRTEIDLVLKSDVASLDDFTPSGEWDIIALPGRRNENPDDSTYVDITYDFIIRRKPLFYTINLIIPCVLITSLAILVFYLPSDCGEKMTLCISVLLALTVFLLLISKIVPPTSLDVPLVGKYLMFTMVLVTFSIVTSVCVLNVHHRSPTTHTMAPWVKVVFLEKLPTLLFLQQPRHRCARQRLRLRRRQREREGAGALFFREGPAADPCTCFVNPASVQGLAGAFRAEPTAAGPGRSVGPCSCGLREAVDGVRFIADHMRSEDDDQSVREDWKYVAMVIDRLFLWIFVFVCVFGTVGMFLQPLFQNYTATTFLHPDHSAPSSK
T1 sequence (P04757 whole entry): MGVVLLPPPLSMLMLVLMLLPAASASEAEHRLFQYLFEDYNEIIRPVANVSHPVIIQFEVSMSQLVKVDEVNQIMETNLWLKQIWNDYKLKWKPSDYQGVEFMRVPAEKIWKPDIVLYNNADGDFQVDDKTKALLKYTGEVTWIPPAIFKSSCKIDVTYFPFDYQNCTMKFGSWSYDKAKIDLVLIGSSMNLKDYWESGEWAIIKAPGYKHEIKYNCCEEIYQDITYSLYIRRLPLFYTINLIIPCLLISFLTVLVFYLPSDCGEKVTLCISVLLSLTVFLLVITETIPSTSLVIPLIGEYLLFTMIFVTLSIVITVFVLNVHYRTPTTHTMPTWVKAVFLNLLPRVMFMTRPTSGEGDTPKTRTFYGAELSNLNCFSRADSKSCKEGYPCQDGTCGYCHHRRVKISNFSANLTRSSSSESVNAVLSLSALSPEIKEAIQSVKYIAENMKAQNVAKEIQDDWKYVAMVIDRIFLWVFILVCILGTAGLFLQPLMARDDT
T1 sequence (P12392 whole entry): as the sequence (P12392 whole entry) above
Neuronal acetylcholine receptor; alpha3/beta2, sequence (P04757 whole entry): as the sequence (P04757 whole entry) above
Neuronal acetylcholine receptor; alpha3/beta2, sequence (P12390 whole entry): as the sequence (P12390 whole entry) above
Neuronal acetylcholine receptor; alpha4/beta2, sequence (P09483 whole entry): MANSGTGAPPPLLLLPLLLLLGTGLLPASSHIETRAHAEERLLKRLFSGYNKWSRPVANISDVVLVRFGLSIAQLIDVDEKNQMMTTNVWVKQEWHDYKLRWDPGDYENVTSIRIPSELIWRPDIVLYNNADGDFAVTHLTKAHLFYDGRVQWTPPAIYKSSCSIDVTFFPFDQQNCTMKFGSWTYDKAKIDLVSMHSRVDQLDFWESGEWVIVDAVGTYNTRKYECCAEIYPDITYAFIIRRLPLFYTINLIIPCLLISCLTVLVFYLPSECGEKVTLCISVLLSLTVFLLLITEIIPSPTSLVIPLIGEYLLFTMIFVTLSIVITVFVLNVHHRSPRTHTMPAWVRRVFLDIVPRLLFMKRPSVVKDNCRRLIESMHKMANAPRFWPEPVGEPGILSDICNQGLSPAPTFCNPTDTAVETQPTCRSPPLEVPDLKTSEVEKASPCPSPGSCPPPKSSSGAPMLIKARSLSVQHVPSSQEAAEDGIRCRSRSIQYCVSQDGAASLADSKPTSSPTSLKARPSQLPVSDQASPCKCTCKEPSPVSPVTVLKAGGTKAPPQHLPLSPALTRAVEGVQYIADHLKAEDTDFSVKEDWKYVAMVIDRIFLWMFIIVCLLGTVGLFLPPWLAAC
Neuronal acetylcholine receptor; alpha4/beta2, sequence (P12390 whole entry): as the sequence (P12390 whole entry) above
Neuronal acetylcholine receptor; alpha4/beta4, sequence (P09483 whole entry): as the sequence (P09483 whole entry) above
Neuronal acetylcholine receptor; alpha4/beta4, sequence (P12392 whole entry): as the sequence (P12392 whole entry) above

Compound | Ki [1] [nM] | Ki [2] [nM] | Ki [3] [nM] | Ki [4] [nM] | Ki [5] [nM] | Ki [6] [nM] | Ki [7] [nM]
Clc1ccc(C2CC3CCC2N3CCN2C3CCC2C(c2ccc(Cl)nc2)C3)cn1 (centres undefined) | 9.33 | 27.7 | 47.8 | 5.44 | 2.08 | 26.8 | –
Clc1ccc(C2CC3CCC2N3CCCCCCN2C3CCC2C(c2ccc(Cl)nc2)C3)cn1 (centres undefined) | 9.05 | 40.4 | – | 6.19 | 3.13 | 47.8 | 82.2
Clc1ccc(C2CC3CCC2N3CCCN2C3CCC2C(c2ccc(Cl)nc2)C3)cn1 (centres undefined) | 15.7 | 54.2 | – | 8.99 | 5.53 | 57.3 | 112
Clc1ccc(C2CC3CCC2N3CCCCCCCCCCN2C3CCC2C(c2ccc(Cl)nc2)C3)cn1 (centres undefined) | 21.6 | 61.3 | – | 12.6 | 7.51 | 71.7 | 138
